The target of one series is T1, Xyl3A (Mycothermus thermophilus, UniProt A0A0C5AKM5).
T1 construct: mature Xyl3A, signal peptide (residues 1-19) removed; precursor 777 residues; pPIC9 alpha-factor fusion, secreted from Pichia pastoris GS115
T1 sequence (A0A0C5AKM5 20-777): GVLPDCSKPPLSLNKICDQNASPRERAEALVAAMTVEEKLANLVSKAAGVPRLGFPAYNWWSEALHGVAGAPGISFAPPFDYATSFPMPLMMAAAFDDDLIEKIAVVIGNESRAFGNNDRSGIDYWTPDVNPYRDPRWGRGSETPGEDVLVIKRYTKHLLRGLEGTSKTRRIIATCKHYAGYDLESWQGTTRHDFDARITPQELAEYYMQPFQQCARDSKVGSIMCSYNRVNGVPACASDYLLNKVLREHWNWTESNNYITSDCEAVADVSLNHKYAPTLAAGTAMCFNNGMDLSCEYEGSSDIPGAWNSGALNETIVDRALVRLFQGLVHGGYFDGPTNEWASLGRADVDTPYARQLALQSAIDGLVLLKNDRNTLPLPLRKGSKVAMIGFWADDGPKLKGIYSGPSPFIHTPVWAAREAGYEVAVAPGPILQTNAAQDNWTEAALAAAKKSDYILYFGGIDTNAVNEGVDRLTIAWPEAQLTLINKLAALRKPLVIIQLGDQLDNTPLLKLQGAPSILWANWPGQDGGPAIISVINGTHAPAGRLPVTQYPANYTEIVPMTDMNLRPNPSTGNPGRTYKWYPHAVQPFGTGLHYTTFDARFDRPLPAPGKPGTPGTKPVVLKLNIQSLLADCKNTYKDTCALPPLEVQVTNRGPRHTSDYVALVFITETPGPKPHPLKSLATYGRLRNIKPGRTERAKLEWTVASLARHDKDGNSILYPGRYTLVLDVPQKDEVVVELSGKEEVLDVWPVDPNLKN
Description: pNPX hydrolysis at […] nm, Dixon plot. Format: biochemical. To be noted: pNPX 0.75 and 1 mM, xylose 5-50 mM, pH 6.0, 60°C; competitive (general statement for β-xylosidases); Methods define Ki as xylose giving 50% inhibition.

Substrate in the series “purified protein”: O=[N+]([O-])c1ccc(O[C@@H]2OC[C@@H](O)[C@H](O)[C@H]2O)cc1
Description: purified protein. Type of series: biochemical, Mycothermus thermophilus. As to conditions: pNPX 1-10 mM, 100 mM Na2HPO4-citric acid, pH 6.0, 60°C, 5 min.

`OC1OC[C@@H](O)[C@H](O)[C@H]1O` (some centres unmarked) [xylose] returned an inhibitory constant (Ki) at Xyl3A of 29 mM.

B1: Xyl3A (Mycothermus thermophilus) (protein)
chain: GVLPDCSKPPLSLNKICDQNASPRERAEALVAAMTVEEKLANLVSKAAGVPRLGFPAYNWWSEALHGVAGAPGISFAPPFDYATSFPMPLMMAAAFDDDLIEKIAVVIGNESRAFGNNDRSGIDYWTPDVNPYRDPRWGRGSETPGEDVLVIKRYTKHLLRGLEGTSKTRRIIATCKHYAGYDLESWQGTTRHDFDARITPQELAEYYMQPFQQCARDSKVGSIMCSYNRVNGVPACASDYLLNKVLREHWNWTESNNYITSDCEAVADVSLNHKYAPTLAAGTAMCFNNGMDLSCEYEGSSDIPGAWNSGALNETIVDRALVRLFQGLVHGGYFDGPTNEWASLGRADVDTPYARQLALQSAIDGLVLLKNDRNTLPLPLRKGSKVAMIGFWADDGPKLKGIYSGPSPFIHTPVWAAREAGYEVAVAPGPILQTNAAQDNWTEAALAAAKKSDYILYFGGIDTNAVNEGVDRLTIAWPEAQLTLINKLAALRKPLVIIQLGDQLDNTPLLKLQGAPSILWANWPGQDGGPAIISVINGTHAPAGRLPVTQYPANYTEIVPMTDMNLRPNPSTGNPGRTYKWYPHAVQPFGTGLHYTTFDARFDRPLPAPGKPGTPGTKPVVLKLNIQSLLADCKNTYKDTCALPPLEVQVTNRGPRHTSDYVALVFITETPGPKPHPLKSLATYGRLRNIKPGRTERAKLEWTVASLARHDKDGNSILYPGRYTLVLDVPQKDEVVVELSGKEEVLDVWPVDPNLKN
notes: mature Xyl3A, signal peptide (residues 1-19) removed; precursor 777 residues; pPIC9 alpha-factor fusion, secreted from Pichia pastoris GS115
Consider B1, for which, in “purified protein”, the Km was found to be 2510 µM.

For orientation: Ki means the equilibrium dissociation constant of an inhibitor or competing ligand from its target. Higher therefore signals lower affinity. Usually Km stands for the concentration of substrate that gives half-maximal velocity.

Values taken from article PMC4320052, “High Level Expression of a Novel Family 3 Neutral β-Xylosidase from Humicola insolens Y1 with High Tolerance to D-Xylose” (PLoS ONE, 2015).
